PubChem BioAssay AID493111 (The Scripps Research Institute Molecular Screening Center, 2011)
Calls of active or inactive are those of the source. No rule for the calls is given here.

Tests used:
Test in all cases: LYPLA1/LYPLA2 inhibition and hydrolase selectivity, late-stage follow-up, selectivity assay for LYPLA1/LYPLA2 dual inhibitor project, biochemical, gel-based ABPP, fluorescence, proteome (AID 493111)
Settings in all cases: fluorophosphonate-rhodamine competition, at 1.5 µM (top of the series)
ABHD11 = test system: ABHD11
APEH = test system: APEH
ESD = test system: ESD
LYPLA1 = test system: LYPLA1
LYPLA2 = test system: LYPLA2

Row | Compound | inhibition (ABHD11) | inhibition (APEH) | inhibition (ESD) | inhibition (LYPLA1) | inhibition (LYPLA2)
1 | O=C(N1CCCCC1)n1ncc(C(O)c2ccccc2)n1 (stereo not given) | 100% | 0% (inactive) | 75% | 100% | 75%
2 | CC(C)(O)c1cnn(C(=O)N2CCC(C(C)(C)C)CC2)n1 | 100% (inactive) | 0% (inactive) | 0% (inactive) | 100% | 100%
3 | CC(C)(C)C1CCN(C(=O)n2ncc(C3(O)CCCCC3)n2)CC1 | 100% | 0% (inactive) | 50% (inactive) | 100% | 100%
4 | CC1CCN(C(=O)n2ncc(C(O)(c3ccccc3)c3ccccc3)n2)CC1 | 100% | 100% | 75% (inactive) | 100% | 100%
5 | O=C(N1CCOCC1)n1ccnn1 | 100% | 0% (inactive) | 0% (inactive) | 0% (inactive) | 0% (inactive)
6 | O=C(N1CCOCC1)n1ncc(-c2ccccc2)n1 | 100% | 100% | 75% | 0% (inactive) | 0% (inactive)
7 | CCC1CCCCN1C(=O)n1ncc(C(O)(c2ccccc2)c2ccccc2)n1 (stereo not given) | 100% | 50% (inactive) | 0% (inactive) | 0% (inactive) | 0% (inactive)
8 | O=C(N1CCCC(Cc2ccccc2)C1)n1cc(C(O)(c2ccccc2)c2ccccc2)nn1 (stereo not given) | 100% | 0% (inactive) | 50% (inactive) | 100% | 100%
9 | O=C(N1CCOCC1)n1ncc(C(O)(c2ccccc2)c2ccccc2)n1 | 100% | 50% (inactive) | 50% (inactive) | 100% | 50% (inactive)
10 | O=C(N1CCCCC1)n1ncc(-c2ccc(Oc3ccccc3)cc2)n1 | 100% | 0% (inactive) | 100% | 100% | 0% (inactive)
11 | O=C(N1CCCCC1)n1ccnn1 | 100% | 0% (inactive) | 0% (inactive) | 75% (inactive) | 0% (inactive)
12 | O=C(N1CCOCC1)n1ncc(-c2ccc(OC(F)(F)F)cc2)n1 | 100% | 50% (inactive) | 75% (inactive) | 0% (inactive) | 0% (inactive)
13 | COc1ccc2cc(-c3cnn(C(=O)N4CCCCC4)n3)ccc2c1 | 100% | 75% (inactive) | 100% | 100% (inactive) | 50% (inactive)

Continued, values first:

Row | inhibition (ABHD11) | inhibition (APEH) | inhibition (ESD) | inhibition (LYPLA1) | inhibition (LYPLA2) | Compound
14 | 100% | 0% (inactive) | 50% (inactive) | 100% | 100% | CC(C)(C)C1CCN(C(=O)n2ncc(C(O)(c3ccccc3)c3ccccc3)n2)CC1
15 | 100% | 0% (inactive) | 50% (inactive) | 100% | 100% | O=C(N1CCC(Cc2ccccc2)CC1)n1ncc(C(O)(c2ccccc2)c2ccccc2)n1
16 | 100% | 50% (inactive) | 100% | 100% | 100% | O=C(N1CCCCC1)n1ncc(C(O)(c2ccccc2)c2ccccc2)n1
17 | 100% | 100% (inactive) | 50% (inactive) | 50% (inactive) | 0% (inactive) | O=C(N1CCOCC1)n1nnc2ccccc21
18 | 100% | 0% (inactive) | 0% (inactive) | 100% | 100% | O=C(N1CCC(C(O)(c2ccccc2)c2ccccc2)CC1)n1ncc(C(O)(c2ccccc2)c2ccccc2)n1
19 | 100% | 0% (inactive) | 100% (inactive) | 100% | 100% | COC1CCN(C(=O)n2ncc(C(O)(c3ccccc3)c3ccccc3)n2)CC1
20 | 100% | 100% | 75% | 50% (inactive) | 0% (inactive) | O=C(N1CCOCC1)n1ncc(-c2cc(F)cc(F)c2)n1
